Results as given in patent US20230051589A1, “COMPOUNDS AND COMPOSITIONS FOR TREATING CONDITIONS ASSOCIATED WITH NLRP ACTIVITY” (Novartis AG, priority 2018, published 2023).

System: IL-1β production in PMA-differentiated THP-1 cells
Assay: IL-1β production in PMA-differentiated THP-1 cells stimulated with gramicidin (hTHP-1 assay, 2% fetal bovine serum; Procedures 1-3)
Format: cell-based, human
Conditions: Homo sapiens, THP-1, Table B1; hTHP-1 assay containing 2% fetal bovine serum, gramicidin stimulation, IL-1β readout; read-out: hTHP-1 IC50 (average)
Experimental: The following protocol is suitable for testing the activity of the compounds disclosed herein.
Procedure 1: IL-1β Production in PMA-Differentiated THP-1 Cells Stimulated with Gramicidin.
THP-1 cells were purchased from the American Type Culture Collection and sub-cultured according to instructions from the supplier. Cells were cultured in complete RPMI 1640 (containing 10% heat inactivated FBS, penicillin (100 units/ml) and streptomycin (100 μg/ml)), and maintained in log phase prior to experimental setup. Prior to the experiment, compounds were dissolved in dimethyl sulfoxide (DMSO) to generate a 30 mM stock. The compound stock was first pre-diluted in DMSO to 3, 0.34, 0.042 and 0.0083 mM intermediate concentrations and subsequently spotted using Echo550 liquid handler into an empty 384-well assay plate to achieve desired final concentration (e.g. 100, 33, 11, 3.7, 1.2, 0.41, 0.14, 0.046, 0.015, 0.0051, 0.0017 μM). DMSO was backfilled in the plate to achieve a final DMSO assay concentration of 0.37%. The plate was then sealed and stored at room temperature until required.
THP-1 cells were treated with PMA (Phorbol 12-myristate 13-acetate) (20 ng/ml) for 16-18 hours. On the day of the experiment the media was removed and adherent cells were detached with trypsin for 5 minutes. Cells were then harvested, washed with complete RPMI 1640, spun down, and resuspended in RPMI 1640 (containing 2% heat inactivated FBS, penicillin (100 units/ml) and streptomycin (100 μg/ml). The cells were plated in the 384-well assay plate containing the spotted compounds at a density of 50,000 cells/well (final assay volume 50 μl). Cells were incubated with compounds for 1 hour and then stimulated with gramicidin (5 μM) (Enzo) for 2 hours. Plates were then centrifuged at 340 g for 5 min. Cell free supernatant (40 μL) was collected using a 96-channel PlateMaster (Gilson) and the production of IL-1β was evaluated by HTRF (cisbio). The plates were incubated for 18 h at 4° C. and read using the preset HTRF program (donor emission at 620 nm, acceptor emission at 668 nm) of the SpectraMax i3x spectrophotometer (Molecular Devices, software SoftMax 6). A vehicle only control and a dose titration of CRID3 (100-0.0017 μM) were run concurrently with each experiment.
Procedure 2: IL-1β Production in PMA-Differentiated THP-1 Cells Stimulated with Gramicidin.
THP-1 cells were purchased from the American Type Culture Collection and sub-cultured according to instructions from the supplier. Prior to experiments, cells were cultured in complete RPMI 1640 (containing 10% heat inactivated FBS, penicillin (100 units/ml) and streptomycin (100 μg/ml)), and maintained in log phase prior to experimental setup. Prior to the experiment THP-1 were treated with PMA (Phorbol 12-myristate 13-acetate) (20 ng/ml) for 16-18 hours. Compounds were dissolved in dimethyl sulfoxide (DMSO) to generate a 30 mM stock. On the day of the experiment the media was removed and adherent cells were detached with trypsin for 5 minutes. Cells were then harvested, washed with complete RPMI 1640, spun down, resuspended in RPMI 1640 (containing 2% heat inactivated FBS, penicillin (100 units/ml) and streptomycin (100 μg/ml) . The cells were plated in a 384-well plate at a density of 50,000 cells/well (final assay volume 50 μl). Compounds were first dissolved in assay medium to obtain a 5× top concentration of 500 μM. 10 step dilutions (1:3) were then undertaken in assay medium containing 1.67% DMSO. 5× compound solutions were added to the culture medium to achieve desired final concentration (e.g. 100, 33, 11, 3.7, 1.2, 0.41, 0.14, 0.046, 0.015, 0.0051, 0.0017 μM). Final DMSO concentration was at 0.37%. Cells were incubated with compounds for 1 hour and then stimulated with gramicidin (5 μM) (Enzo) for 2 hours. Plates were then centrifuged at 340 g for 5 min. Cell free supernatant (40 μL) was collected using a 96-channel PlateMaster (Gilson) and the production of IL-1β was evaluated by HTRF (cisbio). […]

For C[C@@](O)(CO)c1cc(F)c([S@](N)(=O)=NC(=O)Nc2c3c(c(C#N)c4c2CCC4)CCC3)s1 (single isomer, unassigned) [Compound 411a], which IC50 is on record?
Its IC50 is 40 to 200 nM.

Same assay, conditions: Homo sapiens, THP-1, Table B3; hTHP-1 assay containing 2% fetal bovine serum, gramicidin stimulation, IL-1β readout; read-out: hTHP-1 IC50

C[C@](O)(CO)c1ncc(S(N)(=O)=NC(=O)Nc2c3c(cc4c2C(=O)CC4)CCC3)s1 (stereo partly drawn) [Example 744, 2-((S)-1,2-dihydroxypropan-2-yl)-N′-((3-oxo-1,2,3,5,6,7-hexahydro-s-indacen-4-yl)carbamoyl)thiazole-5-sulfonimidamide] was tested. Which IC50 did it give?
The IC50 was 40 to 200 nM.

For CC(C)(O)c1sc(S(N)(=O)=NC(=O)Nc2c3c(cc4c2CCC4)CCC3)nc1CO (stereo not drawn) [Example 767, N′-((1,2,3,5,6,7-hexahydro-s-indacen-4-yl)carbamoyl)-4-(hydroxymethyl)-5-(2-hydroxypropan-2-yl)thiazole-2-sulfonimidamide], which IC50 is on record?
Its IC50 is 40 to 200 nM.

Same assay, conditions: Homo sapiens, THP-1, hTHP-1 assay containing 2% fetal bovine serum, Table B2, class symbols; read-out: IC50

How did the IC50 turn out when NS(=O)(=NC(=O)Nc1c2c(cc3c1CCC3)CCC2)c1ccc(CN2CCC2)cc1F (stereo not drawn) [Example 462, 4-(azetidin-1-ylmethyl)-2-fluoro-N′-((1,2,3,5,6,7-hexahydro-s-indacen-4-yl)carbamoyl)benzenesulfonimidamide] was run?
The IC50 was 1000 to 5000 nM.

With CC(C)c1cc(S(N)(=O)=NC(=O)Nc2c3c(cc4c2CCC4)CCC3)c(F)cn1 (stereo not drawn) [Example 478, 5-Fluoro-N′-((1,2,3,5,6,7-hexahydro-s-indacen-4-yl)carbamoyl)-2-isopropylpyridine-4-sulfonimidamide] as the compound, how does the IC50 read?
Its IC50 is 200 to 1000 nM.

CN(C)Cc1ccc(S(N)(=O)=NC(=O)Nc2c3c(cc4c2CC4)CC3)cc1 (stereo not drawn) [Example 449, 4-((Dimethylamino)methyl)-N′-(tricyclo[6.2.0.03,6]deca-1,3(6),7-trien-2-ylcarbamoyl)benzenesulfonimidamide] was tested. Which IC50 did it give?
The IC50 was 1000 to 5000 nM.

Which IC50 does the source give for CC(C)(O)c1nc(CO)c(S(N)(=O)=NC(=O)Nc2c3c(cc4c2CCC4)CCC3)s1 (stereo not drawn) [Example 475, N′-((1,2,3,5,6,7-hexahydro-s-indacen-4-yl)carbamoyl)-4-(hydroxymethyl)-2-(2-hydroxypropan-2-yl)thiazole-5-sulfonimidamide] here?
Its IC50 is 40 to 200 nM.

Which IC50 does the source give for CC(C)(O)c1csc(S(N)(=O)=NC(=O)Nc2c3c(c(C#N)c4c2CCC4)CCC3)n1 (stereo not drawn) [Example 499, N′-((8-Cyano-1,2,3,5,6,7-hexahydro-s-indacen-4-yl)carbamoyl)-4-(2-hydroxypropan-2-yl)thiazole-2-sulfonimidamide] here?
Its IC50 is 40 to 200 nM.

With CN1CCc2cc(S(N)(=O)=NC(=O)Nc3c4c(cc5c3CCC5)CCC4)sc2C1 (stereo not drawn) [Example 479, N′-((1,2,3,5,6,7-hexahydro-s-indacen-4-yl)carbamoyl)-6-methyl-4,5,6,7-tetrahydrothieno[2,3-c]pyridine-2-sulfonimidamide] as the compound, how does the IC50 read?
The IC50 was 200 to 1000 nM.

Same assay, conditions: Table B1; hTHP-1 assay containing 2% fetal bovine serum, gramicidin stimulation, IL-1β readout; read-out: hTHP-1 IC50 (average)

COC(C)(C)c1ncc(S(N)(=O)=NC(=O)Nc2c3c(cc4c2CCC4)CCC3)s1 (single isomer, unassigned) [Example 388, (R) or (S)-N′-((1,2,3,5,6,7-hexahydro-s-indacen-4-yl)carbamoyl)-2-(2-meth-oxypropan-2-yl)thiazole-5-sulfonimidamide] was tested. Which IC50 did it give?
Its IC50 is 40 to 200 nM.

For CC(C)(O)c1ncc(S(N)(=O)=NC(=O)Nc2c3c(cc4c2CCC4=O)CCC3)s1 (single isomer, unassigned) [Example 336, (R) or (S)-2-(2-Hydroxy-propan-2-yl)-N′-((1-oxo-1,2,3,5,6,7-hexahydro-s-indacen-4-yl)carbamoyl)-thiazole-5-sulfonimidamide], which IC50 is on record?
The IC50 was 200 to 1000 nM.

Same assay, conditions: Table B3; hTHP-1 assay containing 2% fetal bovine serum, gramicidin stimulation, IL-1β readout; read-out: hTHP-1 IC50

Which IC50 does the source give for CCn1ccc(S(N)(=O)=NC(=O)Nc2c3c(cc4c2CC4)CCC3)n1 (single isomer, unassigned) [Example 826, (S) or (R) -1-ethyl-N′-((2,4,5,6-tetrahydro-1H-cyclobuta[f]inden-3-yl)carbamoyl)-1H-pyrazole-3-sulfonimidamide] here?
The IC50 was 1000 to 5000 nM.

For C[C@](O)(CO)c1ncc(S(N)(=O)=NC(=O)Nc2c3c(cc4c2CC4)CCC3)s1 (single isomer, unassigned) [Example 816, (S) or (R)-2-((S)-1,2-dihydroxypropan-2-yl)-N′-((2,4,5,6-tetrahydro-1H-cyclobuta[f]inden-3-yl)carbamoyl)thiazole-5-sulfonimidamide], which IC50 is on record?
Its IC50 is 200 to 1000 nM.

How did the IC50 turn out when NS(=O)(=NC(=O)Nc1c2c(cc3c1CCC3)CCC2)c1ccc(C2CCN2)cc1 (stereo not drawn) [Example 863, (S/R, R)-4-(azetidin-2-yl)-N′-((1,2,3,5,6,7-hexahydro-s-indacen-4-yl)carbamoyl)benzenesulfonimidamide] was run?
The IC50 was 200 to 1000 nM.

CC(NC1CCC1)c1ccc(S(N)(=O)=NC(=O)Nc2c3c(cc4c2CC4)CCC3)c(F)c1 (single isomer, unassigned) [Example 845, (R/S, R)-4-(1-(cyclobutylamino)ethyl)-2-fluoro-N′-((2,4,5,6-tetrahydro-1H-cyclobuta[f]inden-3-yl)carbamoyl)benzenesulfonimidamide] was tested. Which IC50 did it give?
Its IC50 is 200 to 1000 nM.

Same assay, conditions: hTHP-1 assay containing 2% fetal bovine serum, Table B2, class symbols; read-out: IC50

With CO[C@H]1COc2c(S(N)(=O)=NC(=O)Nc3c4c(cc5c3CCC5)CCC4)cnn2C1 (single isomer, unassigned) [Example 696, (S) or (R)-(6R)-N′-((1,2,3,5,6,7-hexahydro-s-indacen-4-yl)carbamoyl)-6-methoxy-6,7-dihydro-5H-pyrazolo[5,1-b][1,3]oxazine-3-sulfonimidamide] as the compound, how does the IC50 read?
The IC50 was 200 to 1000 nM.

With N=S(=O)(NC(=O)Nc1c2c(cc3c1CCC3)CCC2)c1nn(C(F)F)cc1F (single isomer, unassigned) [Example 710] as the compound, how does the IC50 read?
The IC50 was 40 to 200 nM.

For CN(C)C(c1ccc(S(N)(=O)=NC(=O)Nc2c3c(cc4c2CCC4)CCC3)cc1)C(F)F (single isomer, unassigned) [Example 644, (R,R) or (S,R)-4-(-1-(dimethylamino)-2,2-difluoroethyl)-N′-((1,2,3,5,6,7-hexahydro-s-indacen-4-yl)carbamoyl) benzenesulfonimidamide], which IC50 is on record?
Its IC50 is 200 to 1000 nM.

CN1CCc2cc(S(N)(=O)=NC(=O)Nc3c4c(cc5c3CCC5)CCC4)sc2C1 (single isomer, unassigned) [Example 559, (S) or (R)-N′-((1,2,3,5,6,7-hexahydro-s-indacen-4-yl)carbamoyl)-6-methyl-4,5,6,7-tetrahydrothieno[2,3-c]pyridine-2-sulfonimidamide] was tested. Which IC50 did it give?
The IC50 was 1000 to 5000 nM.

How did the IC50 turn out when NS(=O)(=NC(=O)Nc1c2c(cc3c1CCC3)CCC2)c1cnn2c1OC[C@H](O)C2 (single isomer, unassigned) [Example 515, (R,6R) or (S,6R)-N′-((1,2,3,5,6,7-hexahydro-s-indacen-4-yl)carbamoyl)-6-hydroxy-6,7-dihydro-5H-pyrazolo[5,1-b] [1,3]oxazine-3-sulfonimidamide] was run?
The IC50 was 40 to 200 nM.

For C=CCc1c2c(c(NC(=O)N=S(N)(=O)c3cc(C(C)(C)O)n(-c4ccccc4)n3)c3c1CCC3)CCC2 (single isomer, unassigned) [Example 566, (R) or (S)-N′-((8-allyl-1,2,3,5,6,7-hexahydro-s-indacen-4-yl)carbamoyl)-5-(2-hydroxypropan-2-yl)-1-phenyl-1H-pyrazole-3-sulfonimidaimde], which IC50 is on record?
Its IC50 is 1000 to 5000 nM.
